Experimental data as given in patent US9951064B2, “Azaindazole compounds as inhibitors of T790M containing EGFR mutants” (Genentech, Inc., priority 2013, dated 2018).
pEC50, pKi: −log10 of the molar value.

Experiments:
[1] = molecular target: T1, phosphor-EGFR in H1975(L585R/T790M) mutant EGFR expressing cells (Homo sapiens, UniProt P00533, L858R/T790M); experiment: H1975 pEGFR MSD cellular assay; assay type: cell-based; conditions: NCI-H1975 cells, serum starved, 1 hour compound incubation, pEGFR Tyr1068 MSD; read-out: HI975 pEGFR EC50
T1 construct: host or cells: NCI-H1975
T1 sequence (P00533 25-1210 T790M/L858R): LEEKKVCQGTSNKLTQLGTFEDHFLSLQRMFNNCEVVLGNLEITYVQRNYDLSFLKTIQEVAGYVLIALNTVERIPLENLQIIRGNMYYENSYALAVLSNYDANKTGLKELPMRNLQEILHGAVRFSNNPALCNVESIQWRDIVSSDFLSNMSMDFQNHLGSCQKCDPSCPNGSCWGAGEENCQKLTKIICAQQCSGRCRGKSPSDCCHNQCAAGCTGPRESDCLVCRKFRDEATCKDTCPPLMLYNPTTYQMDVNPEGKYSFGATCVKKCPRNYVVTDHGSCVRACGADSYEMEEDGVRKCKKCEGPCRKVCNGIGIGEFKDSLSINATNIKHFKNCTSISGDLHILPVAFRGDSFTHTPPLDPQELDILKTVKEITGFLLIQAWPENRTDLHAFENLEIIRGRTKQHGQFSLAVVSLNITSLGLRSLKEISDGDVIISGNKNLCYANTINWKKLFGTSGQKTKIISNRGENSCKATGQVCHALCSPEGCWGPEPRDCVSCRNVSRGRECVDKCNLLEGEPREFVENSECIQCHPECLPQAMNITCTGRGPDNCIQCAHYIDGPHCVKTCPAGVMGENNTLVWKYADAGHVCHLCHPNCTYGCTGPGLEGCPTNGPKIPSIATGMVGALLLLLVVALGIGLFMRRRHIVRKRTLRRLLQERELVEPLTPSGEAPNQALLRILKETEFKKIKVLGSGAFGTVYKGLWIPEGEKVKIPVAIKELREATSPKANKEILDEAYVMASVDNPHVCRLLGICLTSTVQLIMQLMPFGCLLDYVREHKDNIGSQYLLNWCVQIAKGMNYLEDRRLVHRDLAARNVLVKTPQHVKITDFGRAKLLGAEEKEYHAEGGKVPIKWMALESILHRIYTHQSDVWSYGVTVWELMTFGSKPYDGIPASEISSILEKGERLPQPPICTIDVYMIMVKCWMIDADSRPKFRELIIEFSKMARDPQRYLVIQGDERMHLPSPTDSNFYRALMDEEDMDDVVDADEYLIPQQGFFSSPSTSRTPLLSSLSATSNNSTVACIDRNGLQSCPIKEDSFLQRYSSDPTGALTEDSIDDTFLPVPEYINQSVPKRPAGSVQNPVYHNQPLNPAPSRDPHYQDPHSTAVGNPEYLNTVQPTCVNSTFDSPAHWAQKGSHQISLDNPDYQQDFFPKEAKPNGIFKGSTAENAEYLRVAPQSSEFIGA
Procedure, shortened: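 Phospho-EGFR read by MSD electrochemiluminescence: capture with anti-pEGFR antibody (overnight, 4° C), detection with SULFO-TAG anti-total EGFR (1 hour, room temperature). Before lysis, H1975 cells starved of serum overnight got compound for 1 hour at 37° C, 0.5% DMSO final. EC50 via four-parameter logistic regression of percent inhibition.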

EGFR del746-750 T790M = molecular target: T2, EGFR del746-750 T790M (Homo sapiens, UniProt P00533, DEL746-750/T790M); experiment: EGFR del746-750 T790M biochemical assay (Caliper mobility shift); conditions: 5 μM ATP; apparent Ki (Morrison fit) converted by Cheng-Prusoff, Km of ATP 2.1 μM; read-out: EGFR(T790M/d746-750) Ki
T2 construct: purchased Carna Biosciences 08-528
T2 sequence (P00533 with tags, fused parts or gaps DEL746-750/T790M limits assumed): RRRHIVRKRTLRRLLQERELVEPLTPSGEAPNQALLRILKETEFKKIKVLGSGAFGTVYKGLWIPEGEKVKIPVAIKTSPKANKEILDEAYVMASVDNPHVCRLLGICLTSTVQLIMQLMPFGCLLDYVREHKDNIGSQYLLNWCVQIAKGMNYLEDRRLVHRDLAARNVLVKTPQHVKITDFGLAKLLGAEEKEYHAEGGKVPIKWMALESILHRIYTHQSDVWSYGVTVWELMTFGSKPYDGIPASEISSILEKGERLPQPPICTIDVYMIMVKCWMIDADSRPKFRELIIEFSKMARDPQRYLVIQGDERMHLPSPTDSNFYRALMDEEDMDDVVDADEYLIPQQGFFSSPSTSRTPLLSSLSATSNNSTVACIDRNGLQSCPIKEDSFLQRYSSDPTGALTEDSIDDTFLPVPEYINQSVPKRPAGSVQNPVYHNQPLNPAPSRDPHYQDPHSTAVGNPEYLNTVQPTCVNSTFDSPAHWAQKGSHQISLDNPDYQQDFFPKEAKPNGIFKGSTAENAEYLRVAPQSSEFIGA
Procedure, shortened: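 Caliper mobility-shift read-out, with product electrophoretically resolved from substrate and measured. Reactions were quenched with 80 mM EDTA after 30 min at 22 °C.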

EGFR T790M L858R = molecular target: T3, EGFR T790M L858R (Homo sapiens, UniProt P00533, L858R/T790M); experiment: EGFR T790M L858R biochemical assay (Caliper mobility shift); conditions: 5 μM ATP; apparent Ki (Morrison fit) converted by Cheng-Prusoff, Km of ATP 1.3 μM
T3 construct: purchased Life Technologies PV4879
T3 sequence (P00533 25-1210 T790M/L858R): as the sequence (P00533 25-1210 T790M/L858R) above
Procedure, shortened: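 Caliper mobility-shift read-out, electrophoretic separation of substrate from product, after a 30-minute kinase reaction at 22 °C. EDTA at 80 mM terminates each reaction.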

[2] = system: H1975 (EGFR T790M/L858R) cell proliferation; experiment: H1975 proliferation assay (Cell Titer-Glo); assay type: cell-based; conditions: Homo sapiens, NCI-H1975, 72 h, NCI-H1975 cells, 72 hour incubation, read-out: H1975 antiproliferative EC50
Protocol: H1975 Proliferation Assays
All cell culture reagents were purchased from Invitrogen/Gibco. Cells are cultured at 37° C. at 5% CO2 and split as recommended by ATCC.

SMILES | pEC50 [1] | pKi (EGFR del746-750 T790M) | pKi (EGFR T790M L858R) | pEC50 [2]
CC(C)n1nc(N2CC(C#N)C2)c2cnc(Nc3ccnc(-c4cnn(S(=O)(=O)C5CC5)c4)n3)cc21 [Example 155, 1-(6-(2-(1-(Cyclopropylsulfonyl)-1H-pyrazol-4-yl)pyrimidin-4-ylamino)-1-isopropyl-1H-pyrazolo[4,3-c]pyridin-3-yl)azetidine-3-carbonitrile] | 7.54 | 9.05 | 9.00 | 6.84
CC(C)n1nc(N2CCC(C(=O)N(C)C)C2)c2cnc(Nc3ccnc(-c4cnn(S(=O)(=O)C5CC5)c4)n3)cc21 (stereo not shown) [Example 156, 1-(6-(2-(1-(Cyclopropylsulfonyl)-1H-pyrazol-4-yl)pyrimidin-4-ylamino)-1-isopropyl-1H-pyrazolo[4,3-c]pyridin-3-yl)N,N-dimethylpyrrolidine-3-carboxamide] | 7.41 | 9.10 | 8.96 | 6.79
CC(C)n1nc(N2CCC(C)(C(N)=O)C2)c2cnc(Nc3ccnc(N4CCC(C)(O)CC4)n3)cc21 (stereo not shown) [Example 157, 1-(6-(2-(4-Hydroxy-4-methylpiperidin-1-yl)pyrimidin-4-ylamino)-1-isopropyl-1H-pyrazolo[4,3-c]pyridin-3-yl)-3-methylpyrrolidine-3-carboxamide] | 5.88 | 8.31 | 8.59 | 5.54
CC(C)n1nc(N2CC[C@@H](N)C2=O)c2cnc(Nc3ccnc(N4CCC(C)(O)CC4)n3)cc21 [Example 158, (R)-3-Amino-1-(6-(2-(4-hydroxy-4-methylpiperidin-1-yl)pyrimidin-4-ylamino)-1-isopropyl-1H-pyrazolo[4,3-c]pyridin-3-yl)pyrrolidin-2-one] | 5.89 | 7.29 | 7.73 | 5.09
CC(C)n1nc(N2CC[C@H](N)C2=O)c2cnc(Nc3ccnc(N4CCC(C)(O)CC4)n3)cc21 [Example 159, (S)-3-Amino-1-(6-(2-(4-hydroxy-4-methylpiperidin-1-yl)pyrimidin-4-ylamino)-1-isopropyl-1H-pyrazolo[4,3-c]pyridin-3-yl)pyrrolidin-2-one] | 5.96 | 7.55 | 7.94 | 5.01
CC(C)n1nc(N2CC3(C2)CS(=O)(=O)C3)c2cnc(Nc3ccnc(N4CCC(C)(O)CC4)n3)cc21 [Example 160, 6-(6-((2-(4-Hydroxy-4-methylpiperidin-1-yl)pyrimidin-4-yl)amino)-1-isopropyl-1H-pyrazolo[4,3-c]pyridin-3-yl)-2-thia-6-azaspiro[3.3]heptane 2,2-dioxide] | 6.02 | 8.01 | 8.29 | 5.51
CNC(=O)C1CN(c2nn(C(C)C)c3cc(Nc4ccnc(-c5cnn(S(=O)(=O)C6CC6)c5)n4)ncc23)C1 [Example 161, 1-(6-(2-(1-(Cyclopropylsulfonyl)-1H-pyrazol-4-yl)pyrimidin-4-ylamino)-1-isopropyl-1H-pyrazolo[4,3-c]pyridin-3-yl)-N-methylazetidine-3-carboxamide] | 7.27 | 9.22 | 9.15 | 6.19
CCNC(=O)C1CN(c2nn(C(C)C)c3cc(Nc4ccnc(-c5cnn(S(=O)(=O)C6CC6)c5)n4)ncc23)C1 [Example 162, 1-(6-(2-(1-(Cyclopropylsulfonyl)-1H-pyrazol-4-yl)pyrimidin-4-ylamino)-1-isopropyl-1H-pyrazolo[4,3-c]pyridin-3-yl)-N-ethylazetidine-3-carboxamide] | 7.25 | 9.10 | 9.00 | 6.32
CC(C)n1nc(N2CC(C(=O)N3CCOCC3)C2)c2cnc(Nc3ccnc(-c4cnn(S(=O)(=O)C5CC5)c4)n3)cc21 [Example 163, (1-(6-(2-(1-(Cyclopropylsulfonyl)-1H-pyrazol-4-yl)pyrimidin-4-ylamino)-1-isopropyl-1H-pyrazolo[4,3-c]pyridin-3-yl)azetidin-3-yl)(morpholino)methanone] | 7.58 | 9.05 | 9.05 | 6.46
CC(C)n1nc(N2CC(C(=O)N3CC[C@@H](O)C3)C2)c2cnc(Nc3ccnc(-c4cnn(S(=O)(=O)C5CC5)c4)n3)cc21 [Example 164, (R)-(1-(6-(2-(1-(Cyclopropylsulfonyl)-1H-pyrazol-4-yl)pyrimidin-4-ylamino)-1-isopropyl-1H-pyrazolo[4,3-c]pyridin-3-yl)azetidin-3-yl)(3-hydroxypyrrolidin-1-yl)methanone] | 6.37 | 8.96 | 8.92 | 5.60
CC(C)n1nc(N2CC(C(=O)NCC(F)(F)F)C2)c2cnc(Nc3ccnc(-c4cnn(S(=O)(=O)C5CC5)c4)n3)cc21 [Example 165, 1-(6-(2-(1-(Cyclopropylsulfonyl)-1H-pyrazol-4-yl)pyrimidin-4-ylamino)-1-isopropyl-1H-pyrazolo[4,3-c]pyridin-3-yl)-N-(2,2,2-trifluoroethyl)azetidine-3-carboxamide] | 7.02 | 8.72 | 8.72 | 6.71
CC(C)n1nc(N2CC(C(=O)N3CC[C@H](CO)C3)C2)c2cnc(Nc3ccnc(-c4cnn(S(=O)(=O)C5CC5)c4)n3)cc21 [Example 166, (S)-(1-(6-(2-(1-(cyclopropylsulfonyl)-1H-pyrazol-4-yl)pyrimidin-4-ylamino)-1-isopropyl-1H-pyrazolo[4,3-c]pyridin-3-yl)azetidin-3-yl)(3-(hydroxymethyl)pyrrolidin-1-yl)methanone] | 6.75 | 9.15 | 9.15 | 5.94
CC(C)n1nc(N2CC(C(=O)N3CC[C@@H](CO)C3)C2)c2cnc(Nc3ccnc(-c4cnn(S(=O)(=O)C5CC5)c4)n3)cc21 [Example 167, (R)-(1-(6-(2-(1-(cyclopropylsulfonyl)-1H-pyrazol-4-yl)pyrimidin-4-ylamino)-1-isopropyl-1H-pyrazolo[4,3-c]pyridin-3-yl)azetidin-3-yl)(3-(hydroxymethyl)pyrrolidin-1-yl)methanone] | 6.72 | 9.30 | 9.15 | 5.74
CC(C)n1nc(N2CC(C(=O)N3CC4CCC(C3)O4)C2)c2cnc(Nc3ccnc(-c4cnn(S(=O)(=O)C5CC5)c4)n3)cc21 [Example 168, 8-Oxa-3-azabicyclo[3.2.1]octan-3-yl(1-(6-(2-(1-(cyclopropylsulfonyl)-1H-pyrazol-4-yl)pyrimidin-4-ylamino)-1-isopropyl-1H-pyrazolo[4,3-c]pyridin-3-yl)azetidin-3-yl)methanone] | 7.59 | 8.92 | 8.82 | 6.55
CC(C)NC(=O)C1CN(c2nn(C(C)C)c3cc(Nc4ccnc(-c5cnn(S(=O)(=O)C6CC6)c5)n4)ncc23)C1 [Example 169, 1-(6-(2-(1-(Cyclopropylsulfonyl)-1H-pyrazol-4-yl)pyrimidin-4-ylamino)-1-isopropyl-1H-pyrazolo[4,3-c]pyridin-3-yl)-N-isopropylazetidine-3-carboxamide] | 7.47 | 8.92 | 8.85 | 6.08
CC(C)n1nc(N2CC(C(=O)NC3CC(O)C3)C2)c2cnc(Nc3ccnc(-c4cnn(S(=O)(=O)C5CC5)c4)n3)cc21 (stereo not shown) [Example 170, 1-(6-(2-(1-(Cyclopropylsulfonyl)-1H-pyrazol-4-yl)pyrimidin-4-ylamino)-1-isopropyl-1H-pyrazolo[4,3-c]pyridin-3-yl)-N-(3-hydroxycyclobutyl)azetidine-3-carboxamide] | 6.14 | 8.92 | 8.85 | < 5.00
CC(n1nc(N2CCNC2=O)c2cnc(Nc3ccnc(N4CCC(C)(O)CC4)n3)cc21)C(F)(F)F (stereo not shown) [Example 171, 1-(6-(2-(4-Hydroxy-4-methylpiperidin-1-yl)pyrimidin-4-ylamino)-1-(1,1,1-trifluoropropan-2-yl)-1H-pyrazolo[4,3-c]pyridin-3-yl)imidazolidin-2-one] | 6.15 | 7.48 | 8.21 | 5.97
CC(n1nc(N2CC3(COC3)C2)c2cnc(Nc3ccnc(-c4cnn(S(=O)(=O)C5CC5)c4)n3)cc21)C(F)(F)F (stereo not shown) [Example 172, N-(2-(1-(Cyclopropylsulfonyl)-1H-pyrazol-4-yl)pyrimidin-4-yl)-3-(2-oxa-6-azaspiro[3.3]heptan-6-yl)-1-(1,1,1-trifluoropropan-2-yl)-1H-pyrazolo[4,3-c]pyridin-6-amine] | 6.81 | 8.60 | 8.74 | 6.16
CC(C)n1nc(NCC(F)(F)F)c2cnc(Nc3ccnc(-c4cnn(S(=O)(=O)C5CC5)c4)n3)cc21 [Example 181, N^6-(2-(1-(cyclopropylsulfonyl)-1H-pyrazol-4-yl)pyrimidin-4-yl)-1-isopropyl-N^3-(2,2,2-trifluoroethyl)-1H-pyrazolo[4,3-c]pyridine-3,6-diamine] | 5.49 | 7.97 | 8.09 | < 5.00
